Laboratory results from US9551711B2, “Compositions and methods for detecting nitration of PKG-1α and methods of use thereof” (Augusta University Research Institute, Inc., priority 2013, dated 2017).

Experiments:
PKG-1α = biological target: T1, PKG-1α (Homo sapiens, UniProt Q13976); assay: PKG activity in transfected HEK-293T cells; assay type: cell-based; parameters: an expression plasmid containing a full length WT-PKG-1α cDNA; made in house; host or cells: HEK-293T; conditions: HEK-293T expressing WT-PKG-1α; SIN-1 500 μM, 30 min
T1 sequence (Q13976 2-671): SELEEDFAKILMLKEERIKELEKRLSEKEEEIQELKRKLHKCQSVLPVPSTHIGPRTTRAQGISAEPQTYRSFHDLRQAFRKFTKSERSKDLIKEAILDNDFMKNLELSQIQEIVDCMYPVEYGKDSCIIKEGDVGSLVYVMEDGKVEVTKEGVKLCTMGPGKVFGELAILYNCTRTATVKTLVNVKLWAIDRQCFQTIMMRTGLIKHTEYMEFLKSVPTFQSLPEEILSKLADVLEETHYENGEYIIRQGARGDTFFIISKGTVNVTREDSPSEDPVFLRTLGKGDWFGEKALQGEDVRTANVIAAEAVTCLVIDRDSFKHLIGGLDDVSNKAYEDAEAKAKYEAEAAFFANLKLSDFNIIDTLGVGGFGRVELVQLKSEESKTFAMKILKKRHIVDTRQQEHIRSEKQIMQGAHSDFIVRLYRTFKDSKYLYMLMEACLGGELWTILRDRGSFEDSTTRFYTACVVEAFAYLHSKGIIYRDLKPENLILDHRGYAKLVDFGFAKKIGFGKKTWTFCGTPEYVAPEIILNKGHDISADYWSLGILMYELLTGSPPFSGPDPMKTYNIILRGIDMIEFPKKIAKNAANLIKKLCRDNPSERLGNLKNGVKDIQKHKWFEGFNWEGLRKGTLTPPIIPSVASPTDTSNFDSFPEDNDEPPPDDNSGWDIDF
Method: To determine the role of tyrosine 247 and tyrosine 425 in mediating the nitration dependent inhibition of PKG-1α kinase activity, Y247F- and Y425F-PKG-1α mutants were generated and expressed in HEK-293T cells. HEK-293T cells were transiently transfected with expression plasmids containing WT-, Y247F-, or Y425F-PKG-1α for 48 h. […] Protein extracts were immunoprecipitated using an antibody raised against PKG-1α and the level of nitrated PKG-1α determined by probing the membranes with an antiserum raised against 3-NT. The blots were then stripped and re-probed for PKG-1α to normalize for the efficiency of the immunoprecipitation.
Total PKG activity was determined using a non-radioactive immunoassay in cell lysates, according to the manufacturer's directions. […]
After incubation for 30 min at 30° C. to allow the phosphorylation of the bound substrate, an HRP conjugated anti-phosphothreonine specific antibody was added to convert a chromogenic substrate to a colorimetric substrate that was subsequently read spectrophotometrically at 450 nm. The change in absorbance reflected the relative activity of PKG in the sample. […] The kinetic constants were determined using nonlinear regression (curve fit) analysis (GraphPad Prism Software Inc.).

[1] = tested on: pulmonary artery smooth muscle cells (PASMC); assay: PASMC cell growth (cell count); assay type: cell-based, lamb; conditions: WT-PKG-1α transfected PASMC; SIN-1 500 μM, 48 h
Method: Pulmonary artery smooth muscle cells (PASMC) were grown on a 10 cm dish to 75% confluence, transfected with WT-PKG-1α or Y247F-PKG-1α cDNA using a Qiagen transfection kit, according to manufacturer's instructions, and incubated at 37° C. for 20 h. […] The cells were then trypsinized, seeded onto a 6-well plate at a density of 2.5×10^4 cells per well, and grown for an additional 4 h in serum-free DMEM growth medium containing 1% FBS and antibiotics. The cells were then treated with or without SIN-1 (500 μM) and allowed to grow at 37° C. in the incubator for an additional 48 h. The cellular proliferation was evaluated by counting the cells with a hemacytometer (Cascade Biologicals™, Portland, Oreg.) after the trypsinization of the PASMC monolayers.
Primary cultures of pulmonary artery smooth muscle cells (PASMC) from 4-week old lambs were isolated by the explant technique, as previously described (Wedgwood, S., et al., Circulation Research 89, 357-364 (2001)). Briefly, a segment of the main pulmonary artery from a 4-week old lamb was excised and placed in a sterile 10 cm dish containing DMEM supplemented with 1 gm/1 glucose. The segment was stripped of adventitia with a sterile forceps. The main pulmonary artery segment was then cut longitudinally to open the vessel, and the endothelial layer was removed by gentle rubbing with a cell scraper. […]

Which “cGMP dependent PKG activity” value (PKG-1α) does the source give for “3-morpholinosydnonimine N-ethylcarbamide [SIN-1]” here?
The value was “attenuated”.

What about the proliferation [1] of the same substance?
The proliferation was “stimulated”.
